Laboratory results taken from ChEMBL document CHEMBL1125955, “Synthesis of new disoxaril analogues with potent and selective anti-human rhinovirus 14 activity” (1991).
Values after ≈ are worked out from the molar mass of the structure shown.

Assays:
HeLa [1] = test: Minimum inhibitory concentration (antiviral activity) was evaluated n HeLa cells against human rhino virus; assay type: functional
[2] = Selectivity index was the ratio of maximum testable level to that of minimum inhibitory concentration in human rhino virus; assay type: functional
HeLa [3] = test: Maximum testable level (antiviral activity) was evaluated in HeLa cells against human rhino virus; assay type: functional
Vero [4] = test: Minimum inhibitory concentration (antiviral activity) was screened in Vero cells against herpes simplex virus type 1 (HSV-1); assay type: functional; settings: Chlorocebus sabaeus
Vero [5] = test: Maximum testable level was evaluated in Vero cells that causes no apparent effects on cell monolayers.; assay type: functional, Chlorocebus sabaeus
Vero [6] = test: Minimum inhibitory concentration (antiviral activity) was screened in Vero cells against Coxsackie B1 (Coxs); assay type: functional; settings: Chlorocebus sabaeus
Vero [7] = test: Minimum inhibitory concentration (antiviral activity) was screened in Vero cells against polio type 1 (Sabin strain, Sb-1); assay type: functional; settings: Chlorocebus sabaeus
Vero [8] = test: Minimum inhibitory concentration (antiviral activity) was screened in Vero cells against Vesicular Stomatitis virus (VSV); assay type: functional; settings: Chlorocebus sabaeus
Vero [9] = test: Minimum inhibitory concentration (antiviral activity) was screened in Vero cells against vaccinia virus (VV); assay type: functional; settings: Chlorocebus sabaeus
[10] = Selectivity index was determined as ratio of maximum testable level to that of minimum inhibitory concentration; assay type: functional

Cc1cc(CCCCCCCOc2ccc(C3=NCCO3)cc2)on1 [DISOXARIL]
MIC (HeLa [1]): 0.4 µM (≈ 0.137 µg/mL) | Selectivity index [2]: 45 | MTL (HeLa [3]): >18 µM

Cn1cc(C(=O)CCCCOc2ccc(C3=NCCO3)cc2)cc1C=O
MIC (HeLa [1]): 20 µM (≈ 7.09 µg/mL) | MIC (Vero [4]): > 280 µM | MTL (HeLa [3]): >565 µM | MTL (Vero [5]): >280 µM | MIC (Vero [6]): > 280 µM

Clc1ccc(CCCCCOc2ccc(C3=NCCO3)cc2)s1
MIC (HeLa [1]): 2.8 µM (≈ 0.98 µg/mL) | MIC (Vero [4]): > 30 µM | MTL (HeLa [3]): >60 µM | MTL (Vero [5]): 30 µM | MIC (Vero [6]): > 30 µM | MIC (Vero [7]): 25 µM (≈ 8.75 µg/mL)

Cn1cc(C(=O)CCCCOc2ccc(C(=O)O)cc2)cc1C=O
MIC (HeLa [1]): > 50 µM | MIC (Vero [4]): > 380 µM | MTL (HeLa [3]): >610 µM | MTL (Vero [5]): 380 µM | MIC (Vero [6]): > 380 µM | MIC (Vero [7]): 380 µM (≈ 125 µg/mL)

CCOC(=O)c1ccc(OCCCCC(=O)c2ccc(Cl)s2)cc1
MIC (HeLa [1]): 0.4 µM (≈ 0.147 µg/mL) | Selectivity index [2]: >1362 | MIC (Vero [4]): > 190 µM | MTL (HeLa [3]): >545 µM | MTL (Vero [5]): >190 µM | MIC (Vero [6]): > 190 µM | MIC (Vero [7]): 80 µM (≈ 29.3 µg/mL)

CCOC(=O)c1ccc(OCCCCC(=O)c2ccc(C)o2)cc1
MIC (HeLa [1]): 2.4 µM (≈ 0.793 µg/mL) | MIC (Vero [8]): > 120 µM | MIC (Vero [9]): 30 µM (≈ 9.91 µg/mL) | MIC (Vero [4]): 75 µM (≈ 24.8 µg/mL) | MTL (HeLa [3]): 65 µM | MTL (Vero [5]): >120 µM | MIC (Vero [6]): 60 µM (≈ 19.8 µg/mL) | MIC (Vero [7]): 15 µM (≈ 4.96 µg/mL)

Cn1cccc1C(=O)CCCCOc1ccc(C2=NCCO2)cc1
MIC (HeLa [1]): 1.5 µM (≈ 0.49 µg/mL) | MIC (Vero [4]): > 300 µM | MTL (HeLa [3]): >610 µM | MTL (Vero [5]): >300 µM | Selectivity index [10]: > 406 | MIC (Vero [6]): > 300 µM | MIC (Vero [7]): 300 µM (≈ 97.9 µg/mL)

CCOC(=O)c1ccc(OCCCCC(=O)c2cc(C=O)n(C)c2)cc1
MIC (HeLa [1]): 1.4 µM (≈ 0.5 µg/mL) | MIC (Vero [4]): > 55 µM | MTL (HeLa [3]): >20 µM | MTL (Vero [5]): 55 µM | MIC (Vero [7]): 5 µM (≈ 1.79 µg/mL)

O=C(O)c1ccc(OCCCCC(=O)c2ccc(Cl)s2)cc1
MIC (HeLa [1]): > 50 µM | MIC (Vero [4]): > 170 µM | MTL (HeLa [3]): >590 µM | MTL (Vero [5]): >170 µM | MIC (Vero [6]): > 170 µM | MIC (Vero [7]): 30 µM (≈ 10.2 µg/mL)

O=C(CCCCOc1ccc(C2=NCCO2)cc1)c1ccc(Cl)s1
MIC (HeLa [1]): 0.1 µM (≈ 0.0364 µg/mL) | MIC (Vero [4]): > 275 µM | MTL (HeLa [3]): >550 µM | MTL (Vero [5]): >275 µM | Selectivity index [10]: > 5500 | MIC (Vero [6]): > 275 µM | MIC (Vero [7]): 200 µM (≈ 72.8 µg/mL)

O=C(CCCCOc1ccc(C2=NCCO2)cc1)c1ccc[nH]1
MIC (HeLa [1]): 7.5 µM (≈ 2.34 µg/mL) | MIC (Vero [4]): > 175 µM | MTL (HeLa [3]): >640 µM | MTL (Vero [5]): >175 µM | MIC (Vero [6]): > 175 µM | MIC (Vero [7]): 60 µM (≈ 18.7 µg/mL)

O=C(O)c1ccc(OCCCCCc2ccc(Cl)s2)cc1
MIC (HeLa [1]): > 20 µM | MIC (Vero [4]): > 60 µM | MTL (HeLa [3]): 20 µM | MTL (Vero [5]): 60 µM | MIC (Vero [6]): > 60 µM | MIC (Vero [7]): 20 µM (≈ 6.5 µg/mL)
